Assay results published in PubChem BioAssay (NCI).
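GI50 marks 50% less growth. TGI denotes the concentration required for complete inhibition of growth.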

Columns and labels:
Assay in all cases: NCI tumour cell line growth inhibition, 384-well format
[1] = test system: 786-0 renal
[2] = test system: A498 renal
[3] = test system: A549 NSCLC
[4] = test system: ACHN renal
[5] = test system: BT-549 breast
[6] = test system: CAKI-1 renal
[7] = test system: CCRF-CEM leukemia
[8] = test system: COLO 205 colon
[9] = test system: DU-145 prostate
[10] = test system: EKVX NSCLC
[11] = test system: HCC-2998 colon
[12] = test system: HCT-116 colon
[13] = test system: HCT-15 colon
[14] = test system: HL-60(TB) leukemia
[15] = test system: HOP-62 NSCLC
[16] = test system: HOP-92 NSCLC
[17] = test system: HS 578T breast
[18] = test system: HT29 colon
[19] = test system: IGROV1 ovarian
[20] = test system: K-562 leukemia
[21] = test system: KM12 colon
[22] = test system: LOX IMVI melanoma
[23] = test system: M14 melanoma
[24] = test system: MALME-3M melanoma
[25] = test system: MCF7 breast
[26] = test system: MDA-MB-231 breast
[27] = test system: MDA-MB-435 melanoma
[28] = test system: MDA-MB-468 breast
[29] = test system: MOLT-4 leukemia
[30] = test system: NCI-H226 lung
[31] = test system: NCI-H23 lung
[32] = test system: NCI-H322M lung
[33] = test system: NCI-H460 NSCLC
[34] = test system: NCI-H522 lung
[35] = test system: NCI/ADR-RES ovarian
[36] = test system: OVCAR-3 ovarian
[37] = test system: OVCAR-4 ovarian
[38] = test system: OVCAR-8 ovarian
[39] = test system: PC-3 prostate
[40] = test system: RPMI-8226 leukemia
[41] = test system: RXF 393 renal
[42] = test system: SF-268 CNS
[43] = test system: SF-295 CNS
[44] = test system: SF-539 CNS
[45] = test system: SK-MEL-28 melanoma
[46] = test system: SK-MEL-5 melanoma
[47] = test system: SK-OV-3 ovarian
[48] = test system: SN12C renal
[49] = test system: SNB-19 CNS
[50] = test system: SNB-75 CNS
[51] = test system: SR leukemia
[52] = test system: SW-620 colon
[53] = test system: T-47D breast
[54] = test system: TK-10 renal
[55] = test system: U251 glioblastoma
[56] = test system: UACC-257 melanoma
[57] = test system: UACC-62 melanoma
[58] = test system: UO-31 renal

**Q.** How did the GI50 [1] turn out when CNCc1ccc(-c2cc(-c3nc(-c4ccc(S(=O)(=O)C(C)C)cc4)cnc3N)on2)cc1 was run?
**A.** 0.15 µM

**Q.** And the TGI [1]?
**A.** 0.486 µM

**Q.** What about the GI50 [2] of the same compound?
**A.** 0.0422 µM

**Q.** And the TGI [2]?
**A.** 0.183 µM

**Q.** And the GI50 [3]?
**A.** 0.427 µM

**Q.** And the TGI [3]?
**A.** 1.81 µM

**Q.** What about the GI50 [4] of the same compound?
**A.** 0.151 µM

**Q.** What about the TGI [4] of the same compound?
**A.** 1.24 µM

**Q.** What about the GI50 [5] of the same compound?
**A.** 0.173 µM

**Q.** What about the TGI [5] of the same compound?
**A.** 0.489 µM

**Q.** And the GI50 [6]?
**A.** 0.735 µM

**Q.** What about the TGI [6] of the same compound?
**A.** 2.05 µM

**Q.** And the GI50 [7]?
**A.** 0.0409 µM

**Q.** And the TGI [7]?
**A.** 0.161 µM

**Q.** And the GI50 [8]?
**A.** 1.04 µM

**Q.** And the TGI [8]?
**A.** 6.58 µM

**Q.** And the GI50 [9]?
**A.** 0.25 µM

**Q.** What about the TGI [9] of the same compound?
**A.** 1.32 µM

**Q.** What about the GI50 [10] of the same compound?
**A.** 1 µM

**Q.** And the TGI [10]?
**A.** 2.23 µM

**Q.** And the GI50 [11]?
**A.** 0.0295 µM

**Q.** And the TGI [11]?
**A.** 0.192 µM

**Q.** What about the GI50 [12] of the same compound?
**A.** 0.242 µM

**Q.** What about the TGI [12] of the same compound?
**A.** 1.33 µM

**Q.** What about the GI50 [13] of the same compound?
**A.** 0.127 µM

**Q.** And the TGI [13]?
**A.** 0.315 µM

**Q.** What about the GI50 [14] of the same compound?
**A.** 0.114 µM

**Q.** What about the TGI [14] of the same compound?
**A.** 0.248 µM

**Q.** And the GI50 [15]?
**A.** 0.291 µM

**Q.** And the TGI [15]?
**A.** 1.46 µM

**Q.** What about the GI50 [16] of the same compound?
**A.** 0.336 µM

**Q.** What about the TGI [16] of the same compound?
**A.** 1.41 µM

**Q.** What about the GI50 [17] of the same compound?
**A.** 0.138 µM

**Q.** What about the TGI [17] of the same compound?
**A.** 0.454 µM

**Q.** What about the GI50 [18] of the same compound?
**A.** 0.324 µM

**Q.** What about the TGI [18] of the same compound?
**A.** 1.06 µM

**Q.** What about the GI50 [19] of the same compound?
**A.** 0.211 µM

**Q.** What about the TGI [19] of the same compound?
**A.** 1.34 µM

**Q.** What about the GI50 [20] of the same compound?
**A.** 0.25 µM

**Q.** And the TGI [20]?
**A.** 1.17 µM

**Q.** What about the GI50 [21] of the same compound?
**A.** 0.131 µM

**Q.** What about the TGI [21] of the same compound?
**A.** 0.559 µM

**Q.** What about the GI50 [22] of the same compound?
**A.** 0.303 µM

**Q.** And the TGI [22]?
**A.** 1.4 µM

**Q.** And the GI50 [23]?
**A.** 0.318 µM

**Q.** And the TGI [23]?
**A.** 1.14 µM

**Q.** What about the GI50 [24] of the same compound?
**A.** 0.307 µM

**Q.** What about the TGI [24] of the same compound?
**A.** 1.33 µM

**Q.** And the GI50 [25]?
**A.** 0.105 µM

**Q.** And the TGI [25]?
**A.** 1.25 µM

**Q.** What about the GI50 [26] of the same compound?
**A.** 1.21 µM

**Q.** And the TGI [26]?
**A.** 2.73 µM

**Q.** What about the GI50 [27] of the same compound?
**A.** 0.484 µM

**Q.** And the TGI [27]?
**A.** 1.6 µM

**Q.** And the GI50 [28]?
**A.** 0.57 µM

**Q.** And the TGI [28]?
**A.** 1.85 µM

**Q.** What about the GI50 [29] of the same compound?
**A.** 0.0663 µM

**Q.** And the TGI [29]?
**A.** 0.204 µM

**Q.** And the GI50 [30]?
**A.** 3.07 µM

**Q.** What about the TGI [30] of the same compound?
**A.** 9.52 µM

**Q.** And the GI50 [31]?
**A.** 0.162 µM

**Q.** What about the TGI [31] of the same compound?
**A.** 0.916 µM

**Q.** What about the GI50 [32] of the same compound?
**A.** 0.139 µM

**Q.** And the TGI [32]?
**A.** 1.18 µM

**Q.** What about the GI50 [33] of the same compound?
**A.** 0.0575 µM

**Q.** What about the TGI [33] of the same compound?
**A.** 0.334 µM

**Q.** And the GI50 [34]?
**A.** 6.61 µM

**Q.** What about the TGI [34] of the same compound?
**A.** 20.2 µM

**Q.** And the GI50 [35]?
**A.** 1.31 µM

**Q.** And the TGI [35]?
**A.** 2.68 µM

**Q.** And the GI50 [36]?
**A.** 0.145 µM

**Q.** And the TGI [36]?
**A.** 1.5 µM

**Q.** What about the GI50 [37] of the same compound?
**A.** 0.313 µM

**Q.** And the TGI [37]?
**A.** 1.31 µM

**Q.** And the GI50 [38]?
**A.** 0.534 µM

**Q.** What about the TGI [38] of the same compound?
**A.** 1.77 µM

**Q.** And the GI50 [39]?
**A.** 0.506 µM

**Q.** What about the TGI [39] of the same compound?
**A.** 2.04 µM

**Q.** What about the GI50 [40] of the same compound?
**A.** 0.132 µM

**Q.** And the TGI [40]?
**A.** 0.355 µM

**Q.** What about the GI50 [41] of the same compound?
**A.** 0.216 µM

**Q.** What about the TGI [41] of the same compound?
**A.** 0.791 µM

**Q.** And the GI50 [42]?
**A.** 0.781 µM

**Q.** And the TGI [42]?
**A.** 2.06 µM

**Q.** What about the GI50 [43] of the same compound?
**A.** 1.06 µM

**Q.** What about the TGI [43] of the same compound?
**A.** 4.1 µM

**Q.** What about the GI50 [44] of the same compound?
**A.** 0.135 µM

**Q.** And the TGI [44]?
**A.** 0.31 µM

**Q.** And the GI50 [45]?
**A.** 1.42 µM

**Q.** What about the TGI [45] of the same compound?
**A.** 2.73 µM

**Q.** And the GI50 [46]?
**A.** 1.32 µM

**Q.** And the TGI [46]?
**A.** 2.6 µM

**Q.** What about the GI50 [47] of the same compound?
**A.** 0.242 µM

**Q.** What about the TGI [47] of the same compound?
**A.** 1.36 µM

**Q.** And the GI50 [48]?
**A.** 1.29 µM

**Q.** What about the TGI [48] of the same compound?
**A.** 5.49 µM

**Q.** What about the GI50 [49] of the same compound?
**A.** 1.13 µM

**Q.** And the TGI [49]?
**A.** 2.48 µM

**Q.** What about the GI50 [50] of the same compound?
**A.** 1.15 µM

**Q.** And the TGI [50]?
**A.** 2.38 µM

**Q.** And the TGI [51]?
**A.** 0.0185 µM

**Q.** What about the GI50 [52] of the same compound?
**A.** 0.267 µM

**Q.** And the TGI [52]?
**A.** 1.26 µM

**Q.** What about the GI50 [53] of the same compound?
**A.** 10.4 µM

**Q.** And the TGI [53]?
**A.** 22.2 µM

**Q.** And the GI50 [54]?
**A.** 0.0573 µM

**Q.** And the TGI [54]?
**A.** 0.347 µM

**Q.** What about the GI50 [55] of the same compound?
**A.** 0.46 µM

**Q.** And the TGI [55]?
**A.** 1.66 µM

**Q.** And the GI50 [56]?
**A.** 0.248 µM

**Q.** And the TGI [56]?
**A.** 0.87 µM

**Q.** What about the GI50 [57] of the same compound?
**A.** 1.06 µM

**Q.** And the TGI [57]?
**A.** 2.24 µM

**Q.** What about the GI50 [58] of the same compound?
**A.** 0.285 µM

**Q.** What about the TGI [58] of the same compound?
**A.** 1.4 µM
